Measurements as given in patent US5190783A, “Primary amide esters as low calorie fat mimetics” (Nabisco, Inc., priority 1991, dated 1993).

Test: caloric availability by in vivo animal feeding study (body weight gain)
Parameters: species or system Sprague-Dawley rats
Conditions: rats, diet of 50% fort and 21% test compound, 14 days
Description: This example illustrates how the novel fat mimetics of this invention are screened for caloric availability by a carefully controlled in vivo animal feeding study.
An experimental relationship between total calories ingested and animal body weight gain is established by monitoring the body weight gain associated with consumption of a nutritionally balanced diet containing varying concentrations of a reference substance such as corn oil which has a known caloric availability. Correlations between total calories ingested and body weight gain are excellent (r=0.99).
Caloric availability of a test material is evaluated by substituting a specific weight of the test material for the reference substance and observing the body weight gain. The gain in body weight is equated to a total number of calories using the correlation previously established for the reference data. The estimated number of calories ingested are divided by the weight of test material to give the apparent calories per gram for the test material. Generally speaking, in these bioavailability studies, the degree of perianal pelt soiling correlates with reduced bioavailability.
The test animals are six-week-old male Sprague-Dawley rats obtained from the Portage, Michigan facility of the Charles River Laboratories, Inc. After acclimation for 15 days, the test duration is 14 days. […]

CCCCCCCC/C=C\CCCCCCCC(=O)NCC(COC(=O)CCCCCCC/C=C\CCCCCCCC)OC(=O)CCCCCCC/C=C\CCCCCCCC (stereo not shown) [Example 2, 2,3-s(oleyoyloxy)propyl oleamide]
calories upon being metabolized (apparent calories per gram): about 3.3 kcal/gram
